From PubChem BioAssay AID1259411 (Chemical Carcinogenesis Research Information System (CCRIS), 2018)
Calls of active or inactive are those of the source. No rule for the calls is given here.

System: rodent carcinogenicity bioassays, tumor incidence
Assay: CCRIS carcinogenicity studies
Outline: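 Archive of carcinogenicity, mutagenicity, tumor promotion and tumor inhibition results drawn from journals, NCI reports and other sources, expert-reviewed; covers 1985-2011 and is no longer updated.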

## CCOP(=S)(OCC)Oc1ccc([N+](=O)[O-])cc1
Species: MOUSE, Strain/Sex: B6C3F1/FEMALE, Route: ORAL, Dose: 0, 80, 160 PPM IN DIET, Dose: 0, 80, 160 PPM IN DIET
  carcinogen call: inactive; negative
Species: MOUSE, Strain/Sex: B6C3F1/MALE, Route: ORAL, Dose: 0, 80, 160 PPM IN DIET, Dose: 0, 80, 160 PPM IN DIET
  carcinogen call: inactive; negative
Species: RAT, Strain/Sex: OSBORNE-MENDEL/FEMALE, Route: ORAL, Dose: 0, 23, 45 PPM IN DIET FOR 80 WK (STUDY DURATION: 112-113 WK), Dose: 0, 23, 45 PPM IN DIET FOR 80 WK (STUDY DURATION: 112-113 WK), Tumor Site: Type of Lesion: ADRENAL GLAND: CORTICAL ADENOMA OR CARCINOMA
  carcinogen call: equivocal
Species: RAT, Strain/Sex: OSBORNE-MENDEL/MALE, Route: ORAL, Dose: 0, 32, 63 PPM IN DIET FOR 80 WK (STUDY DURATION: 112-113 WK), Dose: 0, 32, 63 PPM IN DIET FOR 80 WK (STUDY DURATION: 112-113 WK), Tumor Site: Type of Lesion: ADRENAL GLAND: CORTICAL ADENOMA OR CARCINOMA
  carcinogen call: equivocal

## [O]=[Co]
Species: RAT, Strain/Sex: SPRAGUE-DAWLEY/FEMALE, Route: INTRATRACHEAL, Dose: 0, 2, 10 MG/KG EVERY 14 D FOR TOTAL DOSES OF 0, 78, 390 MG/KG (STUDY DURATION: 2 YR), Dose: 0, 2, 10 MG/KG EVERY 14 D FOR TOTAL DOSES OF 0, 78, 390 MG/KG (STUDY DURATION: 2 YR)
  carcinogen call: inactive; negative
Species: RAT, Strain/Sex: SPRAGUE-DAWLEY/MALE,FEMALE, Route: INTRAPERITONEAL, Dose: 0, 200 MG/KG EVERY 2 MO FOR TOTAL DOSES OF 0, 600 MG/KG, Dose: 0, 200 MG/KG EVERY 2 MO FOR TOTAL DOSES OF 0, 600 MG/KG, Tumor Site: Type of Lesion: PERITONEUM: TUMORS
  carcinogen call: active; positive
Species: RAT, Strain/Sex: SPRAGUE-DAWLEY/MALE, Route: INTRATRACHEAL, Dose: 0, 2, 10 MG/KG EVERY 14 D FOR TOTAL DOSES OF 0, 78, 390 MG/KG (STUDY DURATION: 2 YR), Dose: 0, 2, 10 MG/KG EVERY 14 D FOR TOTAL DOSES OF 0, 78, 390 MG/KG (STUDY DURATION: 2 YR), Tumor Site: Type of Lesion: LUNG: TUMOR
  carcinogen call: active; positive
Species: RAT, Strain/Sex: SPRAGUE-DAWLEY/MALE, Route: SUBCUTANEOUS, Dose: 0, 2 MG/KG 5/WK FOR TOTAL DOSES OF 0, 1000 MG/KG (STUDY DURATION: 2 YR), Dose: 0, 2 MG/KG 5/WK FOR TOTAL DOSES OF 0, 1000 MG/KG (STUDY DURATION: 2 YR), Tumor Site: Type of Lesion: SUBCUTANEOUS TISSUE: TUMORS
  carcinogen call: active; positive
Species: RAT, Strain/Sex: SPRAGUE-DAWLEY/MALE, Route: SUBCUTANEOUS, Dose: 0, 10 MG/KG 1/WK FOR TOTAL DOSES OF 0, 1000 MG/KG (STUDY DURATION: 2 YR), Dose: 0, 10 MG/KG 1/WK FOR TOTAL DOSES OF 0, 1000 MG/KG (STUDY DURATION: 2 YR), Tumor Site: Type of Lesion: SUBCUTANEOUS TISSUE: TUMORS
  carcinogen call: active; positive

## Oc1c(Cl)cc(Cl)cc1Cl
Species: MOUSE, Strain/Sex: B6C3F1/FEMALE, Route: ORAL, Dose: 0, 5214, 10428 PPM IN DIET, Dose: 0, 5214, 10428 PPM IN DIET, Tumor Site: Type of Lesion: LIVER: HEPATOCELLULAR CARCINOMA OR ADENOMA
  carcinogen call: active; positive
Species: MOUSE, Strain/Sex: B6C3F1/MALE, Route: ORAL, Dose: 0, 5000, 10000 PPM IN DIET, Dose: 0, 5000, 10000 PPM IN DIET, Tumor Site: Type of Lesion: LIVER: HEPATOCELLULAR CARCINOMA OR ADENOMA
  carcinogen call: active; positive
Species: RAT, Strain/Sex: F344/FEMALE, Route: ORAL, Dose: 0, 5000, 10000 PPM IN DIET, Dose: 0, 5000, 10000 PPM IN DIET
  carcinogen call: inactive; negative
Species: RAT, Strain/Sex: F344/MALE, Route: ORAL, Dose: 0, 5000, 10000 PPM IN DIET, Dose: 0, 5000, 10000 PPM IN DIET, Tumor Site: Type of Lesion: HEMATOPOIETIC SYSTEM (LEUKEMIA): MONOCYTIC LEUKEMIA, LYMPHATIC SYSTEM: LYMPHOMA
  carcinogen call: active; positive

## Cc1cc(O)c2c(c1O)C(=O)C13C(=C2O)C(=O)C2C(O)C1C1C(O)C3C(=O)C3=C(O)c4c(O)cc(C)c(O)c4C(=O)C321 (stereo unspecified)
Species: MOUSE, Route: ORAL, Tumor Site: Type of Lesion: LIVER
  carcinogen call: active; positive

## O=[As]O
Species: Mouse, Strain/Sex: C3H/10 pregnant dams/group, 25 male and 25 female offspring per group assigned at 4 wks of age, Route: Oral, Dose: 0, 42.5, 85 ppm in drinking water of dams, offspring followed for 90 wks, Tumor Site: Type of Lesion: Hepatocellular carcinoma in offspring
  carcinogen call: active; positive
Species: Mouse, Strain/Sex: C3H/Female offspring, Route: Oral, Dose: 0, 85 ppm (in drinking water of dam) in utero
  carcinogen call: inactive; negative
Species: Mouse, Strain/Sex: C3H/Female offspring, Route: Oral, Dose: 0, 85 ppm in drinking water post pubescence (PND 56) to 365 days
  carcinogen call: inactive; negative (hyperplasia only, no tumors)
Species: Mouse, Strain/Sex: C3H/Female offspring, Route: Oral, Dose: 0, 85 ppm in drinking water prior to pubescence (PND 21) to 365 days
  carcinogen call: inactive; negative (hyperplasia only, no increase in tumors)
Species: Mouse, Strain/Sex: C3H/Female offspring, Route: Oral, Dose: 0, 85 ppm in utero and in drinking water to 365 days
  carcinogen call: inactive; negative
Species: Mouse, Strain/Sex: C3H/HeNCr F344/ Male and female (25-35/Group as offspring of 10 dams per exposure level), Route: Drinking water, Dose: 0, 42.5, 85 ppm ad lib on gestation days 8-18, study duration for offspring 90 wks, Tumor Site: Type of Lesion: Male offspring: Liver: hepatocellular carcinoma (statistically significant increase in incidence and multiplicity), Adre
  carcinogen call: active; positive
Species: Mouse, Strain/Sex: C3H/Male offspring, Route: Oral, Dose: 0, 85 ppm (in drinking water of dam) in utero
  carcinogen call: inactive; negative
Species: Mouse, Strain/Sex: C3H/Male offspring, Route: Oral, Dose: 0, 85 ppm in drinking water post pubescence (PND 56) to 365 days
  carcinogen call: inactive; negative (decreased incidence of spontaneous tumors)
Species: Mouse, Strain/Sex: C3H/Male offspring, Route: Oral, Dose: 0, 85 ppm in drinking water prior to pubescence (PND 21) to 365 days
  carcinogen call: inactive; negative (decreased incidence of spontaneous tumors)
Species: Mouse, Strain/Sex: C3H/Male offspring, Route: Oral, Dose: 0, 85 ppm in utero and in drinking water to 365 days, Tumor Site: Type of Lesion: Liver: adenoma and carcinoma (30%, 0%)
  carcinogen call: active; positive

## O=S(=O)(O)OCc1ccc2ccc3cccc4ccc1c2c34
Species: RAT, Strain/Sex: SPRAGUE-DAWLEY/FEMALE, Route: SUBCUTANEOUS, Dose: 0, 0.2 UMOL IN 0.1 ML SESAME OIL:DMSO (9:1) 1/2 D FOR 20 DOSES (STUDY DURATION: 52 WK), Tumor Site: Type of Lesion: INJECTION SITE: SARCOMA
  carcinogen call: active; positive

## C=CCO
Species: HAMSTER, Strain/Sex: SYRIAN/MALE, Route: GAVAGE, Dose: 0, 2 MG/WK FOR 60 WK (STUDY DURATION: 92 WK)
  carcinogen call: inactive; negative
Species: RAT, Strain/Sex: F344/FEMALE, Route: ORAL, Dose: 0, 300 MG/L IN DRINKING WATER 5 D/WK FOR 100 WK (STUDY DURATION: 130 WK)
  carcinogen call: inactive; negative
Species: RAT, Strain/Sex: F344/MALE, Route: ORAL, Dose: 0, 300 MG/L IN DRINKING WATER 5 D/WK FOR 100 WK (STUDY DURATION: 130 WK)
  carcinogen call: inactive; negative

## C/C=C(/C)C(=O)O[C@H]1CCN2CC=C(COC(=O)[C@@](O)([C@H](C)OC)C(C)(C)O)[C@H]12
Species: RAT, Route: INTRAPERITONEAL, Tumor Site: Type of Lesion: INTESTINES, LIVER, INTEGUMENTARY SYSTEM (SKIN), Tumor Site: Type of Lesion: INTESTINES, LIVER, INTEGUMENTARY SYSTEM (SKIN)
  carcinogen call: active; positive
Species: RAT, Strain/Sex: F344/FEMALE, Route: ORAL, Dose: 0, 7, 15, 30 PPM IN DIET, Dose: 0, 7, 15, 30 PPM IN DIET, Tumor Site: Type of Lesion: LIVER: HEPATOCELLULAR CARCINOMA OR ADENOMA (NOS), ANGIOSARCOMA, HEMATOPOIETIC SYSTEM (LEUKEMIA), LYMPHATIC SYSTEM: LYMPH, Tumor Site: Type of Lesion: LIVER: HEPATOCELLULAR CARCINOMA OR ADENOMA (NOS), ANGIOSARCOMA, HEMATOPOIETIC SYSTEM (LEUKEMIA), LYMPHATIC SYSTEM: LYMPH
  carcinogen call: active; positive
Species: RAT, Strain/Sex: F344/MALE, Route: ORAL, Dose: 0, 7, 15, 30 PPM IN DIET, Dose: 0, 7, 15, 30 PPM IN DIET, Tumor Site: Type of Lesion: LIVER: HEPATOCELLULAR CARCINOMA OR ADENOMA (NOS), ANGIOSARCOMA
  carcinogen call: active; positive
